Data taken from patent publication US20250177566A1, “USE OF CHEMICAL EPIGENETIC MODIFIERS TO MODULATE GENE EXPRESSION” (The University of North Carolina at Chapel Hill, priority 2022, published 2025).
Where two headings read alike, the source gives them in different places.

Tests used:
TRE3G-GFP reporter gene [1] = assay: TRE3G-GFP reporter gene activation in HCT116, dCas9 + MS2-FKBP*x2 (F36V) system, flow cytometry; type: cell-based, human; set-up: fold change, GFP: reference not given here; settings: for fold change, GFP: FIG. 5C, NT gRNA, 48 hrs
CXCR4 [2] = assay: CXCR4 mRNA activation in HCT116 stably expressing dCas9 and MS2-FKBP*x2, qRT-PCR; type: cell-based, human
How it was run: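 HCT116 cells stably expressing dCas9 and MS2-FKBP*x2 with CXCR4 gRNA were treated with CEMs (screen at 5 nM; 1–50 nM range). CXCR4 mRNA measured by one-step qRT-PCR after 48 h, or at 12–96 h in time course. Reversibility tested by washout after 24 h, optionally with 20 μM AP1867.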

CXCR4 [3] = assay: CXCR4 mRNA activation in HCT116 stably expressing dCas9 and MS2-FKBPx2 (WT-FKBP), qRT-PCR; type: cell-based, human; settings: FIG. 6, WT FKBP system, 48 hrs
TRE3G-GFP reporter gene [4] = settings: WT FKBP (MS2-FKBPx2), 48 hrs
Experimental: HCT116 cells were transfected with TRE3G-GFP, dCas9, MS2-FKPB*x2, and TRE3G gRNA or NT gRNA. After 48 hrs of 10 nM SLF*-CEMa treatment, flow cytometry was performed and mean fluorescent value was collected. […] TRE3G-GFP, dCas9, MS2-FKBP*2, TRE3G gRNA or NT gRNA were transfected into HCT116 cells. The media was changed to media with 5 nM CEM207 together with 0 nM, 50 nM, 500 nM or 5000 nM of AP1867, respectively. After 48 hrs chemical exposure, flow cytometry was performed and the mean fluorescent value was measured in each group of cells. […] FIGS. 5D and 5E are dose curves of CEMa molecules activating the GFP reporter gene in HCT116 cells using WT FKBP and dCas9 as DNA binding module. HCT116 cells were transfected with dCas9, MS2-FKBPx2, TRE3G-GFP constructs, along with TRE3G gRNA or NT gRNA. Cells were treated with different concentrations of CEMa molecules for 48 hrs before flow cytometry was conducted. […] Error bars represent the standard deviation.
To better understand the activity of SLF*-CEMa in the WT FKBP-based GFP reporter assay, a similar dose-response assay was conducted in HCT116 cells transfected with dCas9 and MS2-FKBPx2 (FIGS. 1D and 1E).
Flow cytometry. All flow cytometry experiments were performed with Attune Nxt as previously described. […] Significance was determined by Student's t-test.

COc1ccc2c(c1)C(c1ccc(Cl)cc1)=N[C@@H](CC(=O)NCc1cn(CCOCCOCCOCCNC(=O)CCSCCC[C@@H]3/C=C(\C)C[C@H](C)C[C@H](OC)[C@H]4O[C@@](O)(C(=O)C(=O)N5CCCC[C@H]5C(=O)O[C@H](/C(C)=C/[C@@H]5CC[C@@H](O)[C@H](OC)C5)[C@H](C)[C@@H](O)CC3=O)[C@H](C)C[C@@H]4OC)nn1)c1nnc(C)n1-2 [CEM87, reference compound]
concentration at which significant GFP activation was first achieved (TRE3G-GFP reporter gene [1]; FIG. 1E, FKBP* system, TRE3G gRNA, 48 hours): 50 nM
fold change, GFP (Treated vs Non-Treated) (TRE3G-GFP reporter gene [1]; FIG. 1E, TRE3G gRNA, 0.25 nM, 48 hours): 1.1 fold
fold change, GFP (Treated vs Non-Treated) (TRE3G-GFP reporter gene [1]; FIG. 1E, TRE3G gRNA, 0.5 nM, 48 hours): 1.1 fold
fold change, GFP (Treated vs Non-Treated) (TRE3G-GFP reporter gene [1]; FIG. 1E, TRE3G gRNA, 0.75 nM, 48 hours): 1.1 fold
fold change, GFP (Treated vs Non-Treated) (TRE3G-GFP reporter gene [1]; FIG. 1E, TRE3G gRNA, 1 nM, 48 hours): 1.1 fold
fold change, GFP (Treated vs Non-Treated) (TRE3G-GFP reporter gene [1]; FIG. 1E, TRE3G gRNA, 2.5 nM, 48 hours): 1.2 fold
fold change, GFP (Treated vs Non-Treated) (TRE3G-GFP reporter gene [1]; FIG. 1E, TRE3G gRNA, 5 nM, 48 hours): 1.1 fold
fold change, GFP (Treated vs Non-Treated) (TRE3G-GFP reporter gene [1]; FIG. 1E, TRE3G gRNA, 7.5 nM, 48 hours): 1.1 fold
fold change, GFP (Treated vs Non-Treated) (TRE3G-GFP reporter gene [1]; FIG. 1E, TRE3G gRNA, 10 nM, 48 hours): 1.2 fold
fold change, GFP (Treated vs Non-Treated) (TRE3G-GFP reporter gene [1]; FIG. 1E, TRE3G gRNA, 25 nM, 48 hours): 1.6 fold
fold change, GFP (Treated vs Non-Treated) (TRE3G-GFP reporter gene [1]; FIG. 1E, TRE3G gRNA, 50 nM, 48 hours): 5.2 fold
fold change, GFP (Treated vs Non-Treated) (TRE3G-GFP reporter gene [1]; FIG. 1E, TRE3G gRNA, 75 nM, 48 hours): 7.8 fold
fold change, GFP (Treated vs Non-Treated) (TRE3G-GFP reporter gene [1]; FIG. 1E, TRE3G gRNA, 100 nM, 48 hours): 9.7 fold
fold change, GFP (TRE3G-GFP reporter gene [1]; 0.25 nM): 1.1 fold
fold change, GFP (TRE3G-GFP reporter gene [1]; 0.5 nM): 1.1 fold
fold change, GFP (TRE3G-GFP reporter gene [1]; 0.75 nM): 1.0 fold
fold change, GFP (TRE3G-GFP reporter gene [1]; 1 nM): 1.0 fold
fold change, GFP (TRE3G-GFP reporter gene [1]; 2.5 nM): 1.1 fold
fold change, GFP (TRE3G-GFP reporter gene [1]; 5 nM): 1.0 fold
fold change, GFP (TRE3G-GFP reporter gene [1]; 7.5 nM): 1.0 fold
fold change, GFP (TRE3G-GFP reporter gene [1]; 10 nM): 1.0 fold
fold change, GFP (TRE3G-GFP reporter gene [1]; 25 nM): 1.0 fold
fold change, GFP (TRE3G-GFP reporter gene [1]; 50 nM): 1.0 fold
fold change, GFP (TRE3G-GFP reporter gene [1]; 75 nM): 1.0 fold
fold change, GFP (TRE3G-GFP reporter gene [1]; 100 nM): 1.0 fold
fold change, CXCR4 mRNA (Treated vs Non-Treated) (CXCR4 [2]; FIG. 2C, 5 nM, 48 hrs): 1.5 fold
fold change, CXCR4 mRNA (CEM Treated vs Non-Treated) (CXCR4 [2]; FIG. 2D, CXCR4 gRNA, 1 nM, 48 hrs): 1.16 fold
fold change, CXCR4 mRNA (CEM Treated vs Non-Treated) (CXCR4 [2]; FIG. 2D, CXCR4 gRNA, 5 nM, 48 hrs): 1.03 fold
fold change, CXCR4 mRNA (CEM Treated vs Non-Treated) (CXCR4 [2]; FIG. 2D, CXCR4 gRNA, 25 nM, 48 hrs): 1.19 fold
fold change, CXCR4 mRNA (CEM Treated vs Non-Treated) (CXCR4 [2]; FIG. 2D, CXCR4 gRNA, 50 nM, 48 hrs): 1.53 fold
fold change, CXCR4 mRNA (CEM Treated vs Non-Treated) (CXCR4 [2]; FIG. 2D, NT gRNA, 1 nM, 48 hrs): 0.85 fold
fold change, CXCR4 mRNA (CEM Treated vs Non-Treated) (CXCR4 [2]; FIG. 2D, NT gRNA, 5 nM, 48 hrs): 0.81 fold
fold change, CXCR4 mRNA (CEM Treated vs Non-Treated) (CXCR4 [2]; FIG. 2D, NT gRNA, 25 nM, 48 hrs): 0.91 fold
fold change, CXCR4 mRNA (CEM Treated vs Non-Treated) (CXCR4 [2]; FIG. 2D, NT gRNA, 50 nM, 48 hrs): 1.18 fold
activation of CXCR4 mRNA expression (CXCR4 [2]; FIG. 2D, all concentrations tested (1-50 nM), 48 hours): no significant activation
fold change, CXCR4 mRNA (CXCR4 gRNA vs NT gRNA) (CXCR4 [3]; 25 nM): 21.5 fold
fold change, CXCR4 mRNA (CXCR4 gRNA vs NT gRNA) (CXCR4 [3]; 50 nM): 16.5 fold
fold change, CXCR4 mRNA (CXCR4 gRNA vs NT gRNA) (CXCR4 [3]; 200 nM): 19.0 fold
fold change, GFP (Treated vs Non-Treated) (TRE3G-GFP reporter gene [4]; FIG. 5D, 10 nM): 22.5 fold
fold change, GFP (Treated vs Non-Treated) (TRE3G-GFP reporter gene [4]; FIG. 5D, 25 nM): 23.1 fold
fold change, GFP (Treated vs Non-Treated) (TRE3G-GFP reporter gene [4]; FIG. 5D, 50 nM): 22.1 fold
fold change, GFP (Treated vs Non-Treated) (TRE3G-GFP reporter gene [4]; FIG. 5D, 100 nM): 22.0 fold
fold change, GFP (Treated vs Non-Treated) (TRE3G-GFP reporter gene [4]; FIG. 5D, 200 nM): 18.7 fold
fold change, GFP (Treated vs Non-Treated) (TRE3G-GFP reporter gene [4]; FIG. 5D, 400 nM): 18.3 fold
fold change, GFP (Treated vs Non-Treated) (TRE3G-GFP reporter gene [4]; FIG. 5E, 10 nM): 1.0 fold
fold change, GFP (Treated vs Non-Treated) (TRE3G-GFP reporter gene [4]; FIG. 5E, 25 nM): 1.1 fold
fold change, GFP (Treated vs Non-Treated) (TRE3G-GFP reporter gene [4]; FIG. 5E, 50 nM): 1.1 fold
fold change, GFP (Treated vs Non-Treated) (TRE3G-GFP reporter gene [4]; FIG. 5E, 100 nM): 1.2 fold
fold change, GFP (Treated vs Non-Treated) (TRE3G-GFP reporter gene [4]; FIG. 5E, 200 nM): 1.1 fold
fold change, GFP (Treated vs Non-Treated) (TRE3G-GFP reporter gene [4]; FIG. 5E, 400 nM): 1.2 fold
